# Assay results published in patent US20250346602A1, “LACTAM SUBSTITUTED IMIDAZOPYRIDAZINE IL-17A MODULATORS AND USES THEREOF” (DICE ALPHA, INC., priority 2022, published 2025).
# Molecular target: T1, IL-17A/A (Homo sapiens, UniProt Q16552)
# T1 construct: purchased Genscript Z03228
# T1 sequence (Q16552 24-155): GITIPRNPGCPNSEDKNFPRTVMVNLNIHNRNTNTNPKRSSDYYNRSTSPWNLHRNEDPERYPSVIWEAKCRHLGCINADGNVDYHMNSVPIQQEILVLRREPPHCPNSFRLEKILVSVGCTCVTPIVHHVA
# Assay: IL-17A/A HEK-Blue cell assay
# Format: cell-based
# Conditions: HEK-Blue IL-17A reporter cell line (HEK 293), IL-17A/A stimulation, 20 hours incubation, SEAP read at A630
# How it was run: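 HEK293 reporter cells expressing IL-17RA, IL-17RC and Act1 were given titrated compound (top final 10, 1 or 0.3 uM; 0.1% DMSO) right before IL-17A/A and incubated 20 hours. NFκB-driven SEAP in the media was read at A630 with Quanti-Blue, and IC50 came from a 4-parameter nonlinear fit.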
row,SMILES,IC50
1,"Cc1nonc1C(=O)N[C@H](c1cn2nc(CC3CCNC3=O)ccc2n1)C1CCCCCC1 (single isomer, unassigned) [Compound 14, N-((1 S)-cycloheptyl(6-((2-oxopyrrolidin-3-yl)methyl)imidazo[1,2-b]pyridazin-2-yl)methyl)-4-methyl-1,2,5-oxadiazole-3-carboxamide]",0.1 to 1 µM
2,"CCn1nccc1C(=O)N[C@H](c1cn2nc(CC3C[C@@H](C(F)(F)F)NC3=O)ccc2n1)[C@H]1CC[C@H](C)CC1 (single isomer, unassigned) [Compound 16]",0.1 to 1 µM
3,"CCn1nccc1C(=O)N[C@H](c1cn2nc(CC3CC(C)(F)CNC3=O)ccc2n1)C(C1CC1)C1CC1 (mixture of isomers) [Compound 40, N-((1S)-2,2-dicyclopropyl-1-(6-((5-fluoro-5-methyl-2-oxopiperidin-3-yl)methyl)imidazo[1,2-b]pyridazin-2-yl)ethyl)-1-ethyl-1H-pyrazole-5-carboxamide]",> 1 µM
4,"CCn1nccc1C(=O)N[C@H](c1cn2nc(CC3C[C@H](C(F)(F)F)CNC3=O)c(C)cc2n1)C1CCC(F)(F)CC1 (single isomer, unassigned) [Compound 92]",< 0.1 µM
5,"CCn1nccc1C(=O)NC(c1cn2nc(CC3CC(C)CNC3=O)ccc2n1)C1CCC(C)CC1 (single isomer, unassigned) [Compound 51]",0.1 to 1 µM
6,"O=C(N[C@H](c1cn2ncc(CC3C[C@@H](C(F)(F)F)NC3=O)cc2n1)C1CCC(F)(F)CC1)c1conc1C(F)(F)F (single isomer, unassigned) [Compound 215]",< 0.1 µM
7,"CCn1nccc1C(=O)N[C@H](c1cn2nc(CC3C[C@@H](C(F)(F)F)NC3=O)ccc2n1)C(C1CC1)C1CC1 (single isomer, unassigned) [Compound 8]",0.1 to 1 µM
8,"CCn1nccc1C(=O)N[C@H](c1cn2nc(CC3CC(F)(F)CNC3=O)c(C)cc2n1)C1CCC(F)(F)CC1 (single isomer, unassigned) [Compound 77]",> 1 µM
9,"CCn1nccc1C(=O)N[C@H](c1cn2nc(CC3C[C@@H](C(F)(F)F)CNC3=O)ccc2n1)C1CC2(CCC2)C1 (single isomer, unassigned) [Compound 190]",> 1 µM
10,"CCn1nccc1C(=O)N[C@H](c1cn2nc(CC3C[C@@H](C(F)(F)F)CNC3=O)ccc2n1)C1CC2(CCC2)C1 (single isomer, unassigned) [Compound 189]",0.1 to 1 µM
11,"CCn1nccc1C(=O)N[C@H](c1cn2nc(CC3C(=O)NC4CC3C4)ccc2n1)[C@H]1CC[C@H](C)CC1 (stereo partly drawn) [Compound 61, 1-ethyl-N-((1S)-((1r,4S)-4-methylcyclohexyl)(6-((3-oxo-2-azabicyclo[3.1.1]heptan-4-yl)methyl)imidazo[1,2-b]pyridazin-2-yl)methyl)-1H-pyrazole-5-carboxamide]",0.1 to 1 µM
12,"O=C(N[C@H](c1cn2nc(C[C@H]3C[C@@H](C(F)(F)F)NC3=O)ccc2n1)C1CCC(F)(F)CC1)c1nonc1C1CC1 (single isomer, unassigned) [Compound 19]",0.1 to 1 µM
13,"O=C(N[C@H](c1cn2nc(CC3C[C@@H](C(F)(F)F)CNC3=O)ccc2n1)[C@@H]1CCCC(F)(F)C1)c1conc1C1CC1 (stereo partly drawn) [Compound 147, 3-cyclopropyl-N-((1S)—((R)-3,3-difluorocyclohexyl)(6-(((5R)-2-oxo-5-(trifluoromethyl)piperidin-3-yl)methyl)imidazo[1,2-b]pyridazin-2-yl)methyl)isoxazole-4-carboxamide]",0.1 to 1 µM
14,"CCn1nccc1C(=O)N[C@H](c1cn2nc(CC3C[C@@H](C(F)(F)F)CNC3=O)c(N(C)C3CC3)cc2n1)C1CCC(F)(F)CC1 (single isomer, unassigned) [Compound 91]",< 0.1 µM
15,"O=C(N[C@H](c1cn2nc(CC3C[C@@H](C(F)(F)F)CNC3=O)ccc2n1)C1CCC(F)(F)CC1)c1nonc1CC(F)(F)F (stereo partly drawn) [Compound 116, N-((1S)-(4,4-difluorocyclohexyl)(6-(((5R)-2-oxo-5-(trifluoromethyl)piperidin-3-yl)methyl)imidazo[1,2-b]pyridazin-2-yl)methyl)-4-(2,2,2-trifluoroethyl)-1,2,5-oxadiazole-3-carboxamide]",0.1 to 1 µM
16,"CCn1ncnc1C(=O)N[C@H](c1cn2nc(CC3C[C@@H](C(F)(F)F)CNC3=O)ccc2n1)[C@H]1CC[C@H](C)CC1 (stereo partly drawn) [Compound 166, N-((1S)-((1R.4S)-4-methylcyclohexyl)(6-(((5R)-2-oxo-5-(trifluoromethyl)piperidin-3-yl)methyl)imidazo[1,2-b]pyridazin-2-yl)methyl)-1-ethyl-1H-1,2,4-triazole-5-carboxamide]",> 1 µM
17,"O=C(N[C@H](c1cn2nc(CC3C[C@@H](C(F)(F)F)CNC3=O)ccc2n1)C1CCC(F)(F)CC1)c1ccnn1C1CC1(F)F (single isomer, unassigned) [Compound 98]",< 0.1 µM

row,SMILES,IC50
1,"CCn1nccc1C(=O)NC(c1cn2nc(CC3C[C@@H](C(F)(F)F)CNC3=O)ccc2n1)C1CCC2CC2CC1 (single isomer, unassigned) [Compound 176]",< 0.1 µM
2,"CCn1nccc1C(=O)N[C@H](c1cn2nc(C[C@@H]3CCCNC3=O)ccc2n1)C(C1CC1)C1CC1 (single isomer, unassigned) [Compound 33]",0.1 to 1 µM
3,"CCn1nccc1C(=O)N[C@H](c1cn2nc(CC3C[C@@H](C(F)(F)F)CNC3=O)ccc2n1)[C@@H]1CCCC(F)(F)C1 (stereo partly drawn) [Compound 194, N-((1S)—((R)-3,3-difluorocyclohexyl)(6-(((5R)-2-oxo-5-(trifluoromethyl)piperidin-3-yl)methyl)imidazo[1,2-b]pyridazin-2-yl)methyl)-1-ethyl-1H-pyrazole-5-carboxamide]",> 1 µM
4,"CCn1nccc1C(=O)NC(c1cn2nc(CC3C[C@@H](C(F)(F)F)CNC3=O)ccc2n1)C1CCC2CC2CC1 (single isomer, unassigned) [Compound 175]",0.1 to 1 µM
5,"CCn1nccc1C(=O)N[C@H](c1cn2nc(C(COC)C3C[C@@H](C(F)(F)F)CNC3=O)ccc2n1)C(C1CC1)C1CC1 (single isomer, unassigned) [Compound 62]",0.1 to 1 µM
6,"CCn1nccc1C(=O)NC(c1cn2ncc(CC3CC(F)(F)CNC3=O)cc2n1)C1CCC(C)CC1 (single isomer, unassigned) [Compound 210]",> 1 µM
7,"O=C(N[C@H](c1cn2nc(CC3C[C@@H](C(F)(F)F)CNC3=O)ccc2n1)C1CCC(F)(F)CC1)c1conc1C(F)(F)C1CC1 (stereo partly drawn) [Compound 125, 3-(cyclopropyldifluoromethyl)-N-((1S)-(4,4-difluorocyclohexyl)(6-(((5R)-2-oxo-5-(trifluoromethyl)piperidin-3-yl)methyl)imidazo[1,2-b]pyridazin-2-yl)methyl)isoxazole-4-carboxamide]",0.1 to 1 µM
8,"CCn1nccc1C(=O)N[C@H](c1cn2nc(CC3C(=O)NCC3C(F)(F)F)ccc2n1)C(C1CC1)C1CC1 (single isomer, unassigned) [Compound 45]",> 1 µM
9,"CCn1nccc1C(=O)NC(c1cn2nc(CC3CC(C)CNC3=O)ccc2n1)C1CCC(C)CC1 (single isomer, unassigned) [Compound 50]",> 1 µM
10,"C[C@H]1CC[C@H]([C@H](NC(=O)c2nonc2N)c2cn3nc(CC4C[C@@H](C(F)(F)F)CNC4=O)ccc3n2)CC1 (stereo partly drawn) [Compound 164, 4-amino-N-((1S)—((1R.4S)-4-methylcyclohexyl)(6-(((5R)-2-oxo-5-(trifluoromethyl)piperidin-3-yl)methyl)imidazo[1,2-b]pyridazin-2-yl)methyl)-1,2,5-oxadiazole-3-carboxamide]",> 1 µM
11,"CCn1nccc1C(=O)N[C@H](c1cn2nc(CC3CC(C(C)(F)F)NC3=O)ccc2n1)C1CCC(F)(F)CC1 (single isomer, unassigned) [Compound 69]",0.1 to 1 µM
12,"CCc1nonc1C(=O)N[C@H](c1cn2nc(CC3C[C@@H](C(F)(F)F)CNC3=O)ccc2n1)C1CCC(F)(F)CC1 (stereo partly drawn) [Compound 112, N-((1S)-(4,4-difluorocyclohexyl)(6-(((5R)-2-oxo-5-(trifluoromethyl)piperidin-3-yl)methyl)imidazo[1,2-b]pyridazin-2-yl)methyl)-4-ethyl-1,2,5-oxadiazole-3-carboxamide]",0.1 to 1 µM
13,"CCn1nccc1C(=O)N[C@H](c1cn2nc(CC3C[C@@H](C(F)(F)F)CNC3=O)ccc2n1)[C@H]1CC[C@H](C)CC1 (stereo partly drawn) [Compound 97, 1-ethyl-N-((1S)-((1R.4S)-4-methylcyclohexyl)(6-(((5R)-2-oxo-5-(trifluoromethyl)piperidin-3-yl)methyl)imidazo[1,2-b]pyridazin-2-yl)methyl)-1H-pyrazole-5-carboxamide]",0.1 to 1 µM
14,"O=C(N[C@H](c1cn2nc(CC3C[C@@H](C(F)(F)F)CNC3=O)ccc2n1)C1CCC(F)(F)CC1)c1nonc1C(F)F (stereo partly drawn) [Compound 115, N-((1S)-(4,4-difluorocyclohexyl)(6-(((5R)-2-oxo-5-(trifluoromethyl)piperidin-3-yl)methyl)imidazo[1,2-b]pyridazin-2-yl)methyl)-4-(difluoromethyl)-1,2,5-oxadiazole-3-carboxamide]",0.1 to 1 µM
15,"CCn1nccc1C(=O)N[C@H](c1cn2nc(CC3CC(F)(F)CNC3=O)c(NC(=O)OC)cc2n1)C1CCC(F)(F)CC1 (stereo partly drawn) [Compound 72, methyl (6-((5,5-difluoro-2-oxopiperidin-3-yl)methyl)-2-((S)-(4,4-difluorocyclohexyl)(1-ethyl-1H-pyrazole-5-carboxamido)methyl)imidazo[1,2-b]pyridazin-7-yl)carbamate]",0.1 to 1 µM
16,"CCn1nccc1C(=O)NC(c1cn2nc(CC3CC(F)(F)CNC3=O)ccc2n1)C1CCCC(F)(F)C1 (mixture of isomers) [Compound 32, N-((6-((5,5-difluoro-2-oxopiperidin-3-yl)methyl)imidazo[1,2-b]pyridazin-2-yl)(3,3-difluorocyclohexyl)methyl)-1-ethyl-1H-pyrazole-5-carboxamide]",0.1 to 1 µM
